Results from patent US20110130380A1, “Heteroaryl Kinase Inhibitors” (priority 2009, published 2011).

Target: Cdk9/cyclinT1 (Homo sapiens, UniProt P50750)
Assay: Cdk9/cyclinT1 IMAP Protocol (fluorescence polarization kinase assay)
Conditions: Cdk9_cyclinT1_IC50, Table V; generated using one of the two Cdk9/cyclinT1 assays (IMAP or Alpha Screen), not stated which; ATP 6 uM

Chain of Cdk9/cyclinT1 (P50750 whole entry): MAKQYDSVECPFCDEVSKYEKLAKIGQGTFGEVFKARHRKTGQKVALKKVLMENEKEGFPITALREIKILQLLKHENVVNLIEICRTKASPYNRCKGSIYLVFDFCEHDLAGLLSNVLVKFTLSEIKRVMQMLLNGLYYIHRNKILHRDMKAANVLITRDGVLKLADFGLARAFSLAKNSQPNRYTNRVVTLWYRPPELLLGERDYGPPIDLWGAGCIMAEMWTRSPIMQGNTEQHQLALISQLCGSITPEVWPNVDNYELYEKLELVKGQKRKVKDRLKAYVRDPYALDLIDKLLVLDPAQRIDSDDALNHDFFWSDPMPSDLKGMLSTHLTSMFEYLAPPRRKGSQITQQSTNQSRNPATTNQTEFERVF
Chain of Cdk9/cyclinT1 (O60563 whole entry partner): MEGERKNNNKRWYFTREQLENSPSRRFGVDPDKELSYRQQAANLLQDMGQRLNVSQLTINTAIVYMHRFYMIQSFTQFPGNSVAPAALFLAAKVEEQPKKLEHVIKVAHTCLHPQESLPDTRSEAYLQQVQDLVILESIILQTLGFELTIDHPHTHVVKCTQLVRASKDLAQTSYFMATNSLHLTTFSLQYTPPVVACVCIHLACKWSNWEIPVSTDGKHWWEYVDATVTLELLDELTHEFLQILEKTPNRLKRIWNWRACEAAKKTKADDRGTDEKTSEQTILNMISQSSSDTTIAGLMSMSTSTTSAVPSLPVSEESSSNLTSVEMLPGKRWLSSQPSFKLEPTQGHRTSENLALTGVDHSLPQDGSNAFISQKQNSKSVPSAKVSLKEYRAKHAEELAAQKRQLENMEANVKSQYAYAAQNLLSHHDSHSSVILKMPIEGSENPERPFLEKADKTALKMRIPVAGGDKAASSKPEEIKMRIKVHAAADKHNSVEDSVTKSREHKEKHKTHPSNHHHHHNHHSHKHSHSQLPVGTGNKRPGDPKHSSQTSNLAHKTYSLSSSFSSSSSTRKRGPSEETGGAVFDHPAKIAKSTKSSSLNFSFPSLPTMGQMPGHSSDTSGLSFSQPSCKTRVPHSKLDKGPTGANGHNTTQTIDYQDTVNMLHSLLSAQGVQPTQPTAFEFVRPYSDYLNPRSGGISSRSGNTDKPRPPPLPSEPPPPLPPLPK

| Compound | IC50 [nM] |
| --- | --- |
| O=C(Nc1cc(-c2nc(NCC3CCOCC3)ccc2Cl)c(F)cn1)[C@H]1CNCCO1 [Example 124, (R)-Morpholine-2-carboxylic acid {3-chloro-5′-fluoro-6-[(tetrahydro-pyran-4-ylmethyl)-amino]-[2,4′]bipyridinyl-2′-yl}-amide] | 30 |
| O=C(Nc1cc(-c2cccc(NCC3CCOCC3)n2)c(Cl)cn1)[C@H]1CNC[C@@H](C(F)(F)F)C1 (single isomer, unassigned) [Example 182] | 4 |
| CC1(C)C[C@@H](CNc2cccc(-c3cc(NC(=O)[C@H]4CNCCO4)ncc3Cl)n2)CCO1 (single isomer, unassigned) [Example 131] | 38 |
| C[C@@H]1CC[C@H](C(=O)Nc2cc(-c3cccc(NCC4CCOCC4)n3)c(Cl)cn2)CN1 (single isomer, unassigned) [Example 142] | 151 |
| O=C(Nc1cc(-c2cccc(NCC3CCOCC3)n2)c(Cl)cn1)C1CNCCO1 (stereo not drawn) [Example 13, Morpholine-2-carboxylic acid {5′-chloro-6-[(tetrahydro-pyran-4-ylmethyl)-amino]-[2,4′]bipyridinyl-2′-yl}-amide] | 16 |
| CC1(C)C[C@H](CNc2cccc(-c3cc(NC(=O)[C@H]4CNCCO4)ncc3Cl)n2)CCO1 (single isomer, unassigned) [Example 130] | < 8 |
| O=C(Nc1cc(-c2cccc(NCC3CCOCC3)n2)c(Cl)cn1)[C@@H]1CNC[C@H](F)C1 [Example 176, (3S,5R)-5-Fluoro-piperidine-3-carboxylic acid {5′-chloro-6-[(tetrahydro-pyran-4-ylmethyl)-amino]-[2,4′]bipyridinyl-2′-yl}-amide] | 23 |
| O=C(Nc1cc(-c2cccc(NCc3cccc(F)c3)n2)c(Cl)cn1)[C@H]1CCCNC1 [Example 4, (S)-Piperidine-3-carboxylic acid [5′-chloro-6-(3-fluoro-benzylamino)-[2,4′]bipyridinyl-2′-yl]-amide] | 17 |
| CC(C)(C)C(=O)Nc1cc(-c2cccc(NCC3CCOCC3)n2)c(Cl)cn1 [Example 72, N-{5′-Chloro-6-[(tetrahydro-pyran-4-ylmethyl)-amino]-[2,4′]bipyridinyl-2′-yl}-2,2-dimethyl-propionamide] | 40 |
| CC(=O)N1CCC(CNc2cccc(-c3cc(NC(=O)[C@@H]4CCCNC4)ncc3Cl)n2)CC1 [Example 30, (R)-Piperidine-3-carboxylic acid {6-[(1-acetyl-piperidin-4-ylmethyl)-amino]-5′-chloro-[2,4′]bipyridinyl-2′-yl}-amide] | < 8 |
| CC(=O)NCCNc1cccc(-c2cc(NC(=O)[C@@H]3CCCNC3)ncc2Cl)n1 [Example 37, (R)-Piperidine-3-carboxylic acid [6-(2-acetylamino-ethylamino)-5′-chloro-[2,4′]bipyridinyl-2′-yl]-amide] | 50 |
| O=C(Nc1cc(-c2cccc(NCc3cc(F)cc(F)c3)n2)c(Cl)cn1)[C@@H]1CCCNC1 [Example 80, (R)-Piperidine-3-carboxylic acid [5′-chloro-6-(3,5-difluoro-benzylamino)-[2,4′]bipyridinyl-2′-yl]-amide] | < 8 |
| CO[C@H]1CNC[C@@H]1C(=O)Nc1cc(-c2nc(NCC3CCOCC3)c(F)cc2Cl)c(Cl)cn1 [Example 181, (3S,4R)-4-Methoxy-pyrrolidine-3-carboxylic acid {3,5′-dichloro-5-fluoro-6-[(tetrahydro-pyran-4-ylmethyl)-amino]-[2,4′]bipyridinyl-2′-yl}-amide] | 1 |
| CC(=O)N1CCC[C@H](C(=O)Nc2cc(-c3cccc(NCC4CCOCC4)n3)c(Cl)cn2)C1 [Example 89, (S)-1-Acetyl-piperidine-3-carboxylic acid {5′-chloro-6-[(tetrahydro-pyran-4-ylmethyl)-amino]-[2,4′]bipyridinyl-2′-yl}-amide] | < 8 |
| COCCN1CCC[C@@H](C(=O)Nc2cc(-c3cccc(NCC4CCOCC4)n3)c(Cl)cn2)C1 [Example 16, (R)-1-(2-Methoxy-ethyl)-piperidine-3-carboxylic acid {5′-chloro-6-[(tetrahydro-pyran-4-ylmethyl)-amino]-[2,4′]bipyridinyl-2′-yl}-amide] | 855 |
| N[C@@H]1CC[C@@H](C(=O)Nc2cc(-c3cccc(NCC4CCOCC4)n3)c(Cl)cn2)C1 [Example 49, (1R,3R)-3-Amino-cyclopentanecarboxylic acid {5′-chloro-6-[(tetrahydro-pyran-4-ylmethyl)-amino]-[2,4′]bipyridinyl-2′-yl}-amide] | < 8 |
| O=C(Nc1cc(-c2cccc(NCC3CCOCC3)n2)c(Cl)cn1)[C@@H]1CN[C@H](CF)C1 [Example 178, (3S,5S)-5-Fluoromethyl-pyrrolidine-3-carboxylic acid {5′-chloro-6-[(tetrahydro-pyran-4-ylmethyl)-amino]-[2,4′]bipyridinyl-2′-yl}-amide] | 1 |
| O=C(Nc1cc(-c2cccc(NCC3CCOCC3)n2)c(Cl)cn1)[C@H]1CNCCO1 [Example 96, (R)-Morpholine-2-carboxylic acid {5′-chloro-6-[(tetrahydro-pyran-4-ylmethyl)-amino]-[2,4′]bipyridinyl-2′-yl}-amide] | 5 |

Second part, the molecule after the results:

| IC50 [nM] | Compound |
| --- | --- |
| 1 | C[C@@H]1CC[C@@H](C(=O)Nc2cc(-c3ccc(F)c(NCC4CCOCC4)n3)c(Cl)cn2)CN1 (single isomer, unassigned) [Example 189] |
| 1 | C[C@@H]1CC[C@@H](C(=O)Nc2cc(-c3cccc(NC[C@@H]4CCOC(C)(C)C4)n3)ccn2)CN1 (mixture of isomers) [Example 226, (3R,6R)-/(3S,6S)-6-Methyl-piperidine-3-carboxylic acid {6-[((R)-2,2-dimethyl-tetrahydro-pyran-4-ylmethyl)-amino]-[2,4′]bipyridinyl-2′-yl}-amide] |
| 171 | CO[C@H]1CNC[C@@H](C(=O)Nc2cc(-c3cccc(NCC4CCOCC4)n3)c(Cl)cn2)C1 (single isomer, unassigned) [Example 212] |
| 1 | O=C(Nc1cc(-c2nc(NCC3CCOCC3)ccc2Cl)c(Cl)cn1)C1CNCCOC1 (single isomer, unassigned) [Example 214] |
| 1 | CC[C@H]1CC[C@@H](C(=O)Nc2cc(-c3ccc(F)c(NCC4CCOCC4)n3)c(Cl)cn2)CN1 (racemic) [Example 252, (3R,6S)-/(3S,6R)-6-Ethyl-piperidine-3-carboxylic acid {5′-chloro-5-fluoro-6-[(tetrahydro-pyran-4-ylmethyl)-amino]-[2,4′]bipyridinyl-2′-yl}-amide] |
| 1 | CC1(CNc2cccc(-c3cc(NC(=O)[C@@H]4CCCNC4)ncc3Cl)n2)CCOCC1 [Example 207, (R)-Piperidine-3-carboxylic acid {5′-chloro-6-[(4-methyl-tetrahydro-pyran-4-ylmethyl)-amino]-[2,4′]bipyridinyl-2′-yl}-amide] |
| 1 | CC[C@@H]1CC[C@@H](C(=O)Nc2cc(-c3ccc(F)c(NCC4CCOCC4)n3)c(Cl)cn2)CN1 (single isomer, unassigned) [Example 256] |
| 1 | CC1(C)CC(CNc2cccc(-c3cc(NC(=O)[C@@H]4CCNC4)ncc3Cl)n2)CCO1 (stereo partly drawn) [Example 188, (R)-Pyrrolidine-3-carboxylic acid {5′-chloro-6-[(2,2-dimethyl-tetrahydro-pyran-4-ylmethyl)-amino]-[2,4′]bipyridinyl-2′-yl}-amide] |
| 1 | CC1(C)C[C@@H](CNc2nc(-c3cc(NC(=O)[C@@H]4CCCNC4)ncc3Cl)ccc2F)CCO1 (single isomer, unassigned) [Example 216] |
